Consider two compounds from paper PMC7664408, “Biaryl Sulfonamides Based on the 2-Azabicycloalkane Skeleton—Synthesis and Antiproliferative Activity” (Materials, 2020).

One data set relates to BALB/3T3. The data set is described as follows: In vitro antiproliferative assay on normal fibroblasts, SRB, 72 h. Type of data set: cell-based, mouse. The settings on record: for IC50: normal mouse fibroblasts BALB/3T3, 72 h, SRB, n.a. = not active in the range of concentrations used (up to 100 µM), read-out: IC50 [µM] ± SD [n = 5] Balb/3T3. An excerpt: (§1) The following human cancer cell lines, representing the most common types of cancer, were chosen for evaluation of the antiproliferative activity of the prepared sulfonamides: lung cancer (A549), breast cancer (MCF-7), colon adenocarcinoma (LoVo), and biphenotypic B cell myelomonocytic leukemia (MV4-11). As a reference, the normal mouse fibroblasts cell line (BALB/3T3) was applied. A549, LoVo and BALB/3T3 cell lines were purchased from the ATCC (American Type Culture Collection, Rockville, MD, USA), MCF-7 cell line—from EACC (The European Collection of Cell Cultures), and MV4-11 cell line was obtained from DSMZ (Leibniz Institute—German Collection of Microorganisms and Cell Culture, Braunschweig, Germany). All these lines were maintained at the Hirszfeld Institute of Immunology and Experimental Therapy (IIET) in Wrocław, Poland.
(§2) We used the following culture media: for A549 cell line: the mixture of RPMI 1640 and OptiMEM (1:1) medium (both from Gibco, Scotland, UK)), 2mM L-glutamine, 1mM sodium pyruvate (Sigma-Aldrich Chemie GmbH, Steinheim, Germany) and 5% fetal bovine serum (FBS; HyClone Laboratories, Logan, UT, USA). MCF-7 cells were cultured in Eagle’s medium (IIET, PAS, Wroclaw, Poland), 2mM L-glutamine and 10% of FBS supplemented with 0.8 mg/L of insulin (Sigma-Aldrich Chemie GmbH, Steinheim, Germany). For LoVo cell line, F12K medium was applied (American Type Culture Collection, Rockville, MD, USA-ATCC), with 5% FBS (HyClone Laboratories, Logan, UT, USA). MV4-11 cells were cultured in RPMI 1640/GlutaMax I medium (Gibco, Thermo Fisher Scientific, Leicestershire, UK) with 1 mM sodium pyruvate (Sigma-Aldrich Chemie GmbH, Steinheim, Germany) and 10% FBS (HyClone Laboratories). In case of BALB/3T3 cells, DMEM (Gibco, Thermo Fisher Scientific) supplemented with 2 mM L-glutamine and 5% FBS was used. Antibiotics: 100 U/mL penicillin (Polfa Tarchomin SA, Warsaw, Poland) and 100 µg/mL streptomycin (Sigma-Aldrich Chemie GmbH, Steinheim, Germany) were present in all the culture media; cells were cultured in a humid atmosphere containing 5% CO2 at 37 °C.
(§3) Twenty-four hours before addition of the tested compounds, each cell line was seeded in 96-well plastic plates (Sarstedt, Numbrecht, Germany) in an appropriate medium at 10^4 cells/well density, except MCF7 cell line: 0.75 × 10^4/well, and A549 cell line: 0.25 × 10^4/well. The studied cell lines were subjected to each of the tested sulfonamides at 4 different concentrations in the range of 100–0.1 µg/mL for 72 h. Cisplatin (Teva Pharmaceuticals, Poland) was used as a reference compound, and DMSO (Sigma-Aldrich Chemie GmbH, Steinheim, Germany) served as a solvent control at concentrations equivalent to these applied in the solutions of the tested sulfonamides. MTT assay was performed for leukemic cells, while sulforhodamine B assay (SRB) for the adherent cells.
(§4) After 72 h of incubation, cells were fixed in situ by gently adding of 50 µL per well of ice-cold 50% TCA (trichloroacetic acid, POCh, Gliwice, Poland) and were incubated at 4 °C for one hour. Each well was then washed five times with water, followed by addition of 50 µL of 0.4% solution of SRB (sulforhodamine B, Sigma-Aldrich Chemie GmbH, Steinheim, Germany) in 1% acetic acid (POCh, Gliwice, Poland), and plates were again incubated at RT for 0.5 h. Plates were washed five times with 1% acetic acid to remove the unbound dye. The stained cells were treated with 10 mM TRIS (Tris base, Sigma-Aldrich, Chemie GmbH, Steinheim, Germany). Absorbance at 540 nm in each well was read with Elisa plate reader (BioTek Synergy H4, Swindon, UK) using the Gen5 software.
(§5) The results are shown as average IC50 values (concentration of the compound causing inhibition of cell proliferation by 50%) ± standard deviation. IC50 values were determined using the Prolab-3 system based on Cheburator 0.4, a software developed by Nevozhay. At each concentration, sulfonamides were tested in triplicates in a single experiment. […]

In a further data set the test system is MV4-11. In words: In vitro antiproliferative assay, MTT, 72 h. It counts as cell-based, human. The settings on record: Homo sapiens, biphenotypic B cell myelomonocytic leukemia MV4-11, 72 h, n.a. = not active in the range of concentrations used (up to 100 µM), read-out: IC50 [µM] ± SD [n = 5] MV4-11.
A further data set relates to LoVo. In words: In vitro antiproliferative assay, SRB, 72 h. It counts as cell-based, human. The settings on record: Homo sapiens, colon adenocarcinoma LoVo, n.a. = not active in the range of concentrations used (up to 100 µM), read-out: IC50 [µM] ± SD [n = 5] LoVo.
Text: as §1, §2, §3, §4, §5

A further data set deals with MCF-7. In words: In vitro antiproliferative assay, SRB, 72 h. Type of data set: cell-based, human. The settings on record: Homo sapiens, MCF7, breast cancer MCF-7, 72 h, n.a. = not active in the range of concentrations used (up to 100 µM), read-out: IC50 [µM] ± SD [n = 5] MCF-7.
Text: as §1, §2, §3, §4, §5

The test system of the next data set is A549. In words: In vitro antiproliferative assay, SRB, 72 h. Type of data set: cell-based, human. The settings on record: Homo sapiens, lung cancer A549, 72 h, n.a. = not active in the range of concentrations used (up to 100 µM), read-out: IC50 [µM] ± SD [n = 5] A549.
Text: as §1, §2, §3, §4, §5

As usually defined, the melting point is the temperature, or range, at which the solid turns liquid. As to `O=S(=O)(NC[C@H]1N[C@H]2CC[C@@H]1C2)c1ccc(-c2ccc(F)cc2)cc1` [Compound 10i, N-((1S,3S,4R)-2-azabicyclo[2.2.1]heptan-3-ylmethyl)-4’-fluoro-[1,1’-biphenyl]-4-sulfonamide], the melting point amounted to 155 °C. The “selectivity: IC50 value for BALB/3T3 line times bigger than for leukemia cells MV4-11” value in the data set with BALB/3T3 (IC50 BALB/3T3 versus IC50 MV4-11) is reported as about 4 times. Moreover, the IC50 in the data set with BALB/3T3 was 24.4 ± 2.75 µM. Besides, the IC50 in the data set on MV4-11 stood at 8.28 ± 2.21 µM. In addition, the IC50 in the data set on LoVo is 21.7 ± 3.52 µM. The IC50 in the data set on MCF-7 came to 18 ± 2.82 µM. In addition, the IC50 in the data set with A549 was found to be 32.9 ± 1.36 µM.

As for `C[C@@H](c1ccccc1)N1[C@H]2CC[C@H](C2)[C@H]1CNS(=O)(=O)c1ccc(-c2ccccc2F)cc1` [Compound 11j, 2’-fluoro-N-(((1S,3S,4R)-2-((S)-1-phenylethyl)-2-azabicyclo[2.2.1]heptan-3-yl)methyl)-[1,1’-biphenyl]-4-sulfonamide], the melting point stood at 95 °C. For the same compound, the IC50 in the data set on BALB/3T3 came out at 12.3 ± 1.88 µM. Besides, the IC50 with MV4-11 was 7.15 ± 3.53 µM. In the data set with LoVo, the IC50 stood at 12.4 ± 2.44 µM. Moreover, the IC50 in the data set with MCF-7 was found to be 17.3 ± 2.29 µM. Further, the IC50 in the data set on A549 worked out at 11.3 ± 0.93 µM.
